# Measurements from BindingDB's records for patent US10844032 (Vanderbilt University, 2020).
# Biological target: T1, Induced myeloid leukemia cell differentiation protein Mcl-1 [172-327] (Homo sapiens, UniProt Q07820)
# T1 construct: 172-327
# Experiment: Binding Assay
# T1 sequence (Q07820 172-327): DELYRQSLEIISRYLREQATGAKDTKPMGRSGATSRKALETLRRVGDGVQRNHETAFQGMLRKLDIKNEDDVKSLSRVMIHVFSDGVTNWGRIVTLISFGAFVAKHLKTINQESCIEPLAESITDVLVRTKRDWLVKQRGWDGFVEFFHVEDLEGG
row,Compound,Ki
1,"Cc1cc(OCCCc2c(C(=O)NS(=O)(=O)c3ccccc3)[nH]c3c(-c4c(COc5ccccn5)nn(C)c4C)cccc23)cc(C)c1Cl [US10844032, Example 306]",< 100 nM
2,"Cc1cc(OCCCc2c(C(=O)NS(=O)(=O)c3ccccc3)[nH]c3c(-c4c(COc5cccnc5)nn(C)c4C)cccc23)cc(C)c1Cl [US10844032, Example 307]",< 100 nM
